Measurements published in article PMC12196476, “New Nitrogen-, Oxygen-, and Sulfur-Containing Heterocyclic Compounds as Anti-Colon Cancer Agents: Synthesis, Multitargeted Evaluations, Molecular Docking Simulations and ADMET Predictions” (Pharmaceuticals, 2025).
Where “and” joins values, the source holds several entries; their conditions need not be identical. Identical values can stand only once.

Tests used:
LoVo cells = test: Mitochondrial membrane potential (TMRE staining), LoVo; format: cell-based, human; conditions: 30 µg/mL, 48 h
Experimental: To assess mitochondrial integrity, TMRE staining was used to measure ΔΨm.
The mitochondrial transmembrane potential was measured using a tetramethylrhodamine, ethyl ester (TMRE) mitochondrial membrane potential assay kit. […]
(§1) medium served used as negative and positive controls, respectively. Percentages of viable cells […]
(§2) wells (final concentration of 100 μg/mL), compared to the negative control, and expressed as mean value (%) ± SD from two replicates. Graphing dose-response curves representing the compound […]
(§3) (HUVECs) at final concentration of 100 μg/mL . HUVECs were grown in Dulbecco’s Modified Eagle’s Medium supplemented with 10% FBS, 2 mM glutamine (Sigma Aldrich), 100 units/mL penicillin and […] streptomycin (Life Technologies; Paisley, UK).
(§4) S3.2.5. Cell cycle assay.
(§5) HCT-116 and LoVo cultures upon treatment with compound 3d. HCT-116 and LoVo carcinoma […]
(§6) μg/mL for 48 h. […] Then, cells […]
were fixed by mixing […] of 90% cold ethanol and stained with propidium iodide (PI) for 1 h at 37 °C. […]
(§7) of stained cancerous cells were determined. […]
carcinoma cells treated with compound 3d was assessed using the TMRE Mitochondrial Membrane […]
for TMRE staining. TMRE was excited using a 488 nm laser and detected in the FL2 channel at 575 […]
S3.2.9. Quantification of the Expression Levels of Bax, Bcl-2 and Caspase-3 Genes […]

HCT-116 cells [1] = test: Intracellular ROS level (human ROS ELISA kit), HCT-116; format: cell-based; conditions: 30 µg/mL, 48 h
Experimental: To determine whether compound 3d induces oxidative stress, intracellular ROS levels were quantified after treatment (30 µg/mL, 48 h) using a human ROS ELISA kit.
A Human ROS ELISA Kit was used to measure the intracellular accumulation of ROS in the 3d-treated LoVo and HCT-116 cells. […]
as §1, §2, §3, §4, §5, §6
were fixed by mixing […] of 90% cold ethanol and stained with propidium iodide (PI) for 1 h at 37 °C. RNase A (10 mg/mL) was added in order to […] the ability of PI to bind only to DNA […]
S3.2.6. Annexin-V-FITC assay. […]
treatment with compound 3d. […]
as §7
(§8) carcinoma cells treated with compound 3d was assessed using the TMRE Mitochondrial Membrane

[2] = Cell viability, LDH release assay, normal HUVECs; conditions: human, normal HUVECs, Mean % of viable cells ± SD, HUVEC
HCT-116 cells [3] = test: Cell cycle assay (PI flow cytometry), HCT-116; format: cell-based, human; conditions: 30 µg/mL, 48 h, mean of n = 2 (Figure 1E); untreated control 47.37 ± 1.68%
Experimental: Cell proliferation depends on orderly progression through the phases of the cell cycle (G1−S−G2−M). Cytotoxic agents can impair the integrity of DNA, leading to checkpoint arrest at G1/S or G2/M, which subsequently blocks proliferation. To evaluate the impact of compound 3d on cell cycle distribution, colon carcinoma cells were treated with 30 µg/mL of 3d for 48 h, followed by DNA content analysis using flow cytometry. […] In contrast, in HCT-116 cells, 3d caused an accumulation in the G1 phase, reaching 60.17 ± 1.44% versus 47.37 ± 1.68% in untreated cells (Figure 1E). […]
as §1, §2, §3, §4, §5, §6, §7, §8

Structure (SMILES): COc1cc(/C=N/c2ncnc3sc4c(c23)CCCC4)cc(OC)c1OC [Compound 3d, (E)-N-(5,6,7,8-Tetrahydrobenzo[4,5]thieno[2,3-d]pyrimidin-4-yl)-1-(3,4,5-trimethoxyphenyl)methanimine]
- Reduction of mitochondrial membrane potential (ΔΨm), LoVo cells (LoVo cells): 60.23 ± 1.87%
- ROS, Fold of control, HCT-116 (HCT-116 cells [1]): 2.0
- [ROS] pg/mL ± SD, HCT-116 (HCT-116 cells [1]; control 143.5 ± 6.8, two independent experiments): 290.1 ± 12.7 pg/mL and 290.1 pg/mL
- viability at 48 h, 100 µg/mL [2]: ~90%
- % of Cell population, HCT-116: %G1 (HCT-116 cells [3]): 60.17 ± 1.44%
